Results: patent publication US9012443B2 (Amgen Inc., priority 2011, dated 2015)

Experiments:
Nav 1.7 [1] = target: T1, Nav 1.7 (Homo sapiens (Human), UniProt Q15858); test: Nav 1.7 in vitro PX assay (PatchXpress whole cell voltage clamp); format: cell-based; conditions: 293 cells, human Nav1.7, partially inactivated state; read-out: Nav1.7 PX IC50 IP
How it was run: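 HEK293 cells stably expressing human Nav1.7, whole-cell voltage clamp on PatchXpress, held at potential giving 20–50% inactivation; current elicited by 20 msec pulse to −10 mV.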

Nav 1.7 [2] = target: T1, Nav 1.7; test: Nav 1.7 IWQ in vitro assay (IonWorks Quattro population patch-clamp); format: cell-based; conditions: for IC50: 293 cells stably transfected with Nav 1.7, second part of table, read-out: Nav1.7 IWQ IC50 IP
How it was run: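 HEK293 cells stably expressing Nav 1.7, recorded by automated population patch-clamp with a train of depolarizations producing increasing inactivation. Single compound concentration added during 3–8 min unclamped period, then same protocol repeated. Leak-corrected current at 26th pulse to −20 mV gave percent block (duplicate); IC50 fitted from concentration–block curves.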

T1 sequence (Q15858 whole entry): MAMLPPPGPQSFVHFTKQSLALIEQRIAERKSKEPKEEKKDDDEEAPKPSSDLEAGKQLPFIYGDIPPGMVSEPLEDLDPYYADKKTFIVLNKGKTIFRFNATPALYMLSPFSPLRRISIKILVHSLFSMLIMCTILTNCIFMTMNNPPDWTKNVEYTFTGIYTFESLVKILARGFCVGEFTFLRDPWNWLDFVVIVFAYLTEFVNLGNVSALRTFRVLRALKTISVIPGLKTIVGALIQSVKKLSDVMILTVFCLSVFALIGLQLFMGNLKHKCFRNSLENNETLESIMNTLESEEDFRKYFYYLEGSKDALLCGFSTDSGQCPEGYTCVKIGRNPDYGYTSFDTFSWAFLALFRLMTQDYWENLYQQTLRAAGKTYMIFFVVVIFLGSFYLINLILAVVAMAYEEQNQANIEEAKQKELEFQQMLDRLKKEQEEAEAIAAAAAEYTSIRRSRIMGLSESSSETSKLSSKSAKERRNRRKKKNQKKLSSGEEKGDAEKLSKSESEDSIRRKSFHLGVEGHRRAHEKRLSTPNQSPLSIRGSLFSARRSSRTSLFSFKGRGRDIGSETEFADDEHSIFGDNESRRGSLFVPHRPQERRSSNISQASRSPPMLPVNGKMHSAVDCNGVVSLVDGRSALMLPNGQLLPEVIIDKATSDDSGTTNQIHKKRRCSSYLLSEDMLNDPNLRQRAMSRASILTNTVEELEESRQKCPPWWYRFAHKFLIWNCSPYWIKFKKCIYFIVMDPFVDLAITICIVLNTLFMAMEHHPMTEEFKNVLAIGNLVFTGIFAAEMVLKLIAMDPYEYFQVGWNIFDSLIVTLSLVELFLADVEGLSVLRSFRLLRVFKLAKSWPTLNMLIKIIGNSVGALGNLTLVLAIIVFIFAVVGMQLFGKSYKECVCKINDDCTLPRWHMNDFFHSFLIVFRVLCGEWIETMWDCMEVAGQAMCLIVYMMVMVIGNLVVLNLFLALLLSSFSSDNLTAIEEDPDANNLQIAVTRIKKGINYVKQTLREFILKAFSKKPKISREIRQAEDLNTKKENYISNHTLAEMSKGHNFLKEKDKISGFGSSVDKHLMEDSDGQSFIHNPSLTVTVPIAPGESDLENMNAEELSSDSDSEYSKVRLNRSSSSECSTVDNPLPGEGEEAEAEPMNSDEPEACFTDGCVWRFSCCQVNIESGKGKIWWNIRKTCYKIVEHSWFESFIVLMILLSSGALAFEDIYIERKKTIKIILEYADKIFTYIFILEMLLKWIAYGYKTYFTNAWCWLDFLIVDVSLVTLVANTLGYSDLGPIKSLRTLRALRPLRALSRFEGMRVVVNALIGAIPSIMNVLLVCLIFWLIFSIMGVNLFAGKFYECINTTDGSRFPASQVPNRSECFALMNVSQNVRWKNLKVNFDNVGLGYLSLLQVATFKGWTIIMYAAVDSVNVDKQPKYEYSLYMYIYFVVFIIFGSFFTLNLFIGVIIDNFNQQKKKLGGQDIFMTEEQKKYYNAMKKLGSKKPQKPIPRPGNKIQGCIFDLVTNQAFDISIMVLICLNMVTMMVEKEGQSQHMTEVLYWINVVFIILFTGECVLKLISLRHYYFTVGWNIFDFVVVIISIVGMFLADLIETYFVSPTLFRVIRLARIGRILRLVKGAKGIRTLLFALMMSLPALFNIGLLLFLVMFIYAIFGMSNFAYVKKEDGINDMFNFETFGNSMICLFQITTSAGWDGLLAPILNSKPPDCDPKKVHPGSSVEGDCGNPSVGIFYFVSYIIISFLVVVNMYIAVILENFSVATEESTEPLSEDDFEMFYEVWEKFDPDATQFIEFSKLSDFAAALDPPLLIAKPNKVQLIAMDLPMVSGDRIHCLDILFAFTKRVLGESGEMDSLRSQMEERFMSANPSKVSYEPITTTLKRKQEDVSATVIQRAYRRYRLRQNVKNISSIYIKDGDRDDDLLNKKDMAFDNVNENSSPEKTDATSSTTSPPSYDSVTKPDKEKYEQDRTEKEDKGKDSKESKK

Row | Compound | IC50 (Nav 1.7 [1]) [nM] | IC50 (Nav 1.7 [2]) [nM] | Nav1.7 Single Point Data IWQ (at […]) (%) (Nav 1.7 [2]; at […])
1 | O=S(=O)(Nc1ncns1)c1ccc2c(N3CCCC3c3ccccc3)nccc2c1 (stereo not drawn) [Example 236, 1-(2-PHENYLPYRROLIDIN-1-YL)-N-(1,2,4-THIADIAZOL-5-YL)ISOQUINOLINE-6-SULFONAMIDE] | 430 | 130 | –
2 | COc1ccc(-c2nccc3cc(S(=O)(=O)Nc4ccncn4)ccc23)c(OC)c1 [Example 172, 1-(2,4-DIMETHOXYPHENYL)-N-(PYRIMIDIN-4-YL)ISOQUINOLINE-6-SULFONAMIDE] | 16600 | 270 | –
3 | COc1cc(Cl)ccc1-c1ncc(F)c2cc(S(=O)(=O)Nc3nccs3)ccc12 [Example 215, 1-(4-CHLORO-2-METHOXYPHENYL)-4-FLUORO-N-(THIAZOL-2-YL)ISOQUINOLINE-6-SULFONAMIDE] | 86 | 20 | –
4 | COc1ccc(C(F)(F)F)cc1-c1nccc2cc(S(=O)(=O)Nc3nccs3)ccc12 [Example 180, 1-(2-METHOXY-5-(TRIFLUOROMETHYL)PHENYL)-N-(THIAZOL-2-YL)ISOQUINOLINE-6-SULFONAMIDE] | 439 | 40 | –
5 | COc1cc(C(F)(F)F)ccc1-c1cncc2cc(S(=O)(=O)Nc3nccs3)ccc12 [Example 288, 4-(2-METHOXY-4-(TRIFLUOROMETHYL)PHENYL)-N-(THIAZOL-2-YL)ISOQUINOLINE-7-SULFONAMIDE] | 600 | 40 | –
6 | O=S(=O)(Nc1ncns1)c1ccc2c(NCc3ccccc3)cccc2c1 [Example 99, 5-(benzylamino)-N-(1,2,4-thiadiazol-5-yl)naphthalene-2-sulfonamide] | 4450 | 1180 | –
7 | O=S(=O)(Nc1nccs1)c1ccc2c(-c3ccc(C(F)(F)F)cc3Br)nccc2c1 [Example 235, 1-(2-BROMO-4-(TRIFLUOROMETHYL)PHENYL)-N-(THIAZOL-2-YL)ISOQUINOLINE-6-SULFONAMIDE] | 150 | 50 | –
8 | COc1cc(Cl)ccc1-c1nccc2cc(S(=O)(=O)Nc3ccncn3)ccc12 [Example 160, 1-(4-CHLORO-2-METHOXYPHENYL)-N-(PYRIMIDIN-4-YL)ISOQUINOLINE-6-SULFONAMIDE] | 1330 | 20 | –
9 | O=S(=O)(Nc1ncns1)c1ccc2c(N3CCCC3c3ccncc3)cccc2c1 (stereo not drawn) [Example 88] | 238 | 20 | –
10 | CC1CCCN1c1cccc2cc(S(=O)(=O)Nc3ncns3)ccc12 (stereo not drawn) [Example 91] | 1470 | 270 | –
11 | COc1cc(C(F)(F)F)ccc1-c1ncnc2cc(S(=O)(=O)Nc3ncco3)ccc12 [Example 264, 4-(2-METHOXY-4-(TRIFLUOROMETHYL)PHENYL)-N-(OXAZOL-2-YL)QUINAZOLINE-7-SULFONAMIDE] | 1870 | 170 | –
12 | COCCN1CCCC1c1nccc2cc(S(=O)(=O)Nc3nccs3)ccc12 (stereo not drawn) [Example 246, 1-(1-(2-METHOXYETHYL)PYRROLIDIN-2-YL)-N-(THIAZOL-2-YL)ISOQUINOLINE-6-SULFONAMIDE] | 27400 | 2150 | –
13 | O=S(=O)(Nc1ccncn1)c1ccc2c(-c3ccc(C(F)(F)F)cc3-n3ccnc3)cccc2c1 [Example 121] | 864 | 30 | –
14 | COc1cc(C2CC2)ccc1-c1cccc2cc(S(=O)(=O)Nc3ccncn3)ccc12 [Example 125] | 631 | 40 | –
15 | COc1cc(Cl)c(Cl)cc1-c1nccc2cc(S(=O)(=O)Nc3ccncn3)ccc12 [Example 161, 1-(4,5-DICHLORO-2-METHOXYPHENYL)-N-(PYRIMIDIN-4-YL)ISOQUINOLINE-6-SULFONAMIDE] | 393 | 20 | –
16 | COc1cc(C(F)(F)F)ccc1-c1ncc(F)c2cc(S(=O)(=O)Nc3nccs3)ccc12 [Example 212, 4-FLUORO-1-(2-METHOXY-4-(TRIFLUOROMETHYL)PHENYL)-N-(THIAZOL-2-YL)ISOQUINOLINE-6-SULFONAMIDE] | 269 | 30 | –
17 | COc1cc(Cl)ccc1-c1ncnc2cc(S(=O)(=O)Nc3nccs3)ccc12 [Example 267, 4-(4-CHLORO-2-METHOXYPHENYL)-N-(THIAZOL-2-YL)QUINAZOLINE-7-SULFONAMIDE] | 300 | 10 | –
18 | O=S(=O)(Nc1ncns1)c1ccc2c(N3CCC[C@@H]3c3cccnc3)cccc2c1 (single isomer, unassigned) [Example 87] | 1320 | 460 | –
19 | NC(=O)c1cc(C(F)(F)F)ccc1-c1nccc2cc(S(=O)(=O)Nc3nccs3)ccc12 [Example 227, 2-(6-(N-(THIAZOL-2-YL)SULFAMOYL)ISOQUINOLIN-1-YL)-5-(TRIFLUOROMETHYL)BENZAMIDE] | 2270 | 110 | –
20 | COc1cc(Cl)ccc1-c1ncc(F)c2cc(S(=O)(=O)Nc3ccncn3)ccc12 [Example 217, 1-(4-CHLORO-2-METHOXYPHENYL)-4-FLUORO-N-(PYRIMIDIN-4-YL)ISOQUINOLINE-6-SULFONAMIDE] | 692 | 40 | –

Row | Compound | IC50 (Nav 1.7 [1]) [nM] | IC50 (Nav 1.7 [2]) [nM] | Nav1.7 Single Point Data IWQ (at […]) (%) (Nav 1.7 [2]; at […])
21 | COc1cc(C(F)F)ccc1-c1nccc2cc(S(=O)(=O)Nc3nccs3)ccc12 [Example 224, 1-(4-(DIFLUOROMETHYL)-2-METHOXYPHENYL)-N-(THIAZOL-2-YL)ISOQUINOLINE-6-SULFONAMIDE] | 313 | 20 | –
22 | O=S(=O)(Nc1ccncn1)c1ccc2c(OCc3ncoc3-c3ccccc3)nccc2c1 [Example 130, 1-((5-PHENYLOXAZOL-4-YL)METHOXY)-N-(PYRIMIDIN-4-YL)ISOQUINOLINE-6-SULFONAMIDE] | 4510 | 500 | –
23 | COc1cc(C#N)ccc1-c1ncnc2cc(S(=O)(=O)Nc3nccs3)ccc12 [Example 269, 4-(4-CYANO-2-METHOXYPHENYL)-N-(THIAZOL-2-YL)QUINAZOLINE-7-SULFONAMIDE] | 470 | 20 | –
24 | O=S(=O)(Nc1ncns1)c1ccc2c(N3CCCC3c3cccnc3)cccc2c1 (stereo not drawn) [Example 85] | 173 | 10 | –
25 | COc1ccc(OC(F)(F)F)cc1-c1nccc2cc(S(=O)(=O)Nc3ccncn3)ccc12 [Example 151, 1-(2-METHOXY-5-(TRIFLUOROMETHOXY)PHENYL)-N-(PYRIMIDIN-4-YL)ISOQUINOLINE-6-SULFONAMIDE] | 1020 | 30 | –
26 | Cc1cc(Cl)ccc1-c1nccc2cc(S(=O)(=O)Nc3nccs3)ccc12 [Example 209, 1-(4-CHLORO-2-METHYLPHENYL)-N-(THIAZOL-2-YL)ISOQUINOLINE-6-SULFONAMIDE 2,2,2-TRIFLUOROACETATE] | 385 | 60 | –
27 | COc1cc(C(F)(F)F)ccc1-c1nc(C#N)cc2cc(S(=O)(=O)Nc3nccs3)ccc12 [Example 220, 3-CYANO-1-(2-METHOXY-4-(TRIFLUOROMETHYL)PHENYL)-N-(THIAZOL-2-YL)ISOQUINOLINE-6-SULFONAMIDE] | 450 | 60 | –
28 | COc1cc(NS(=O)(=O)c2ccc3c(-c4ccc(C(F)(F)F)cc4OC)nccc3c2)ncn1 [Example 181, 1-(2-METHOXY-4-(TRIFLUOROMETHYL)PHENYL)-N-(6-METHOXYPYRIMIDIN-4-YL)ISOQUINOLINE-6-SULFONAMIDE] | 1560 | 110 | –
29 | COc1cc(C(F)(F)F)ccc1-c1nccc2cc(S(=O)(=O)Nc3ncc(F)s3)ccc12 [Example 198, N-(5-FLUOROTHIAZOL-2-YL)-1-(2-METHOXY-4-(TRIFLUOROMETHYL)PHENYL)ISOQUINOLINE-6-SULFONAMIDE 2,2,2-TRIFLUOROACETATE] | 422 | 40 | –
30 | COc1cc(F)ccc1-c1nccc2cc(S(=O)(=O)Nc3ccncn3)ccc12 [Example 167, 1-(4-FLUORO-2-METHOXYPHENYL)-N-(PYRIMIDIN-4-YL)ISOQUINOLINE-6-SULFONAMIDE] | 4260 | 50 | –
31 | O=S(=O)(Nc1ccncn1)c1ccc2c(-c3cnn(-c4cccc(Cl)c4)c3)nccc2c1 [Example 429, 1-(1-(3-CHLOROPHENYL)-1H-PYRAZOL-4-YL)-N-(PYRIMIDIN-4-YL)ISOQUINOLINE-6-SULFONAMIDE] | > 30000 | – | 54.7
32 | O=S(=O)(Nc1ccncn1)c1ccc2c(-c3cc4cc(F)ccc4[nH]3)cccc2c1 [Example 114] | 11300 | 820 | –
33 | Cn1cncc1-c1cc(C(F)(F)F)ccc1-c1cccc2cc(S(=O)(=O)Nc3ncc(F)s3)ccc12 [Example 110] | 140 | 40 | –
34 | O=S(=O)(Nc1nccs1)c1ccc2c(-c3ccc(C(F)(F)F)cc3-n3ccnc3)nccc2c1 [Example 229, 1-(2-(1H-IMIDAZOL-1-YL)-4-(TRIFLUOROMETHYL)PHENYL)-N-(THIAZOL-2-YL)ISOQUINOLINE-6-SULFONAMIDE] | 420 | 10 | –
35 | O=S(=O)(Nc1nccs1)c1ccc2c([C@@H]3CCCN3C3CCOCC3)cccc2c1 [Example 103, (S)-5-(1-(TETRAHYDRO-2H-PYRAN-4-YL)PYRROLIDIN-2-YL)-N-(THIAZOL-2-YL)NAPHTHALENE-2-SULFONAMIDE COMPOUND WITH DIETHYLAMINE (1:1)] | 14500 | 1580 | –
36 | COc1cc(Cl)ccc1-c1nccc2cc(S(=O)(=O)Nc3nccs3)ccc12 [Example 201, 1-(4-CHLORO-2-METHOXYPHENYL)-N-(THIAZOL-2-YL)ISOQUINOLINE-6-SULFONAMIDE] | 315 | 20 | –
37 | COc1cc(C(F)(F)F)ccc1-c1nncc2cc(S(=O)(=O)Nc3ncc(F)s3)ccc12 [Example 255, N-(5-FLUOROTHIAZOL-2-YL)-1-(2-METHOXY-4-(TRIFLUOROMETHYL)PHENYL)PHTHALAZINE-6-SULFONAMIDE] | 150 | 20 | –
38 | Cn1ccnc1-c1cc(C(F)(F)F)ccc1-c1cccc2cc(S(=O)(=O)Nc3ccncn3)ccc12 [Example 124] | 502 | 60 | –
39 | O=S(=O)(Nc1nccs1)c1ccc2c(-c3ccc(F)cc3O)nccc2c1 [Example 189, 1-(4-FLUORO-2-HYDROXYPHENYL)-N-(THIAZOL-2-YL)ISOQUINOLINE-6-SULFONAMIDE] | 5960 | 460 | –
